Patent US20250074920A1, “MACROCYCLIC COMPOUNDS AND USE AS KINASE INHIBITORS” (BLOSSOMHILL THERAPEUTICS, INC., priority 2022, published 2025)
pKd: −log10 of the molar value.

Tests used:
Test in all cases: KINOMEscan kinase binding assay
[1] = target: JAK1(JH1domain-catalytic); conditions: read-out: JAK1(JH1 domain-catalytic) Kd
Procedure: (§1) Kinase binding assays were performed at Eurofins/DiscoveRx using the general KINOMEscan Protocol (Fabian, M. A. et al., “A small molecule-kinase interaction map for clinical kinase inhibitors,” Nat. Biotechnol. 2005, 23(3):329-36). For most assays, kinase-tagged T7 phage strains were prepared in an E. coli host derived from the BL21 strain. E. coli were grown to log-phase and infected with T7 phage and incubated with shaking at 32° C. until lysis. The lysates were centrifuged and filtered to remove cell debris. The remaining kinases were produced in HEK-293 cells and subsequently tagged with DNA for qPCR detection. Streptavidin-coated magnetic beads were treated with biotinylated small molecule ligands for 30 minutes at room temperature to generate affinity resins for kinase assays. The liganded beads were blocked with excess biotin and washed with blocking buffer (SeaBlock (Pierce), 1% BSA, 0.05% Tween 20, 1 mM DTT) to remove unbound ligand and to reduce nonspecific binding. Binding reactions were assembled by combining kinases, liganded affinity beads, and test compounds in 1× binding buffer (20% SeaBlock, 0.17×PBS, 0.05% Tween 20, 6 mM DTT). All reactions were performed in polystyrene 96-well plates in a final volume of 0.135 mL. The assay plates were incubated at room temperature with shaking for 1 hour and the affinity beads were washed with wash buffer (1×PBS, 0.05% Tween 20). The beads were then re-suspended in elution buffer (1×PBS, 0.05% Tween 20, 0.5 μM non-biotinylated affinity ligand) and incubated at room temperature with shaking for 30 minutes. The kinase concentration in the eluates was measured by qPCR. Results for compounds tested in this assay at a given concentration are reported as “% Ctrl”, where lower numbers indicate stronger binding in the matrix. % Ctrl was calculated as (test compound signal-positive control signal)/(negative control signal-positive control signal)×100. Dissociation constants (Kds) for test compound-kinase interactions were calculated by measuring the amount of kinase captured on the solid support as a function of the test compound concentration.

[2] = target: JAK1(JH2domain-pseudokinase); conditions: read-out: JAK1(JH2 domain-pseudokinase) Kd
Procedure: as §1

[3] = target: JAK2(JH1domain-catalytic); conditions: read-out: JAK2(JH1 domain-catalytic) Kd
Procedure: as §1

[4] = target: JAK3(JH1domain-catalytic); conditions: read-out: JAK3(JH1 domain-catalytic) Kd
Procedure: as §1

[5] = target: TYK2(JH1domain-catalytic); conditions: read-out: TYK2(JH1 domain-catalytic) Kd
Procedure: as §1

[6] = target: TYK2(JH2domain-pseudokinase); conditions: read-out: TYK2(JH2 domain-pseudokinase) Kd
Procedure: as §1

Cc1cc2c([nH]1)/C=C1\C(=O)Nc3c(Cl)cc(cc31)-c1cn(C)nc1COCCN(C)C2=O [Cpd. 7, [3a(4)Z]-20-chloro-6,9,15-trimethyl-10,11,13,15-tetrahydro-2H-1,17-(ethanediylidene)pyrazolo[4,3-m]dipyrrolo[3,2-f:3′,4′-i][1,4]oxazacyclopentadecine-3,8(5H,9H)-dione]
pKd [1]: < 5.00 | pKd [2]: 7.33 | pKd [3]: < 5.00 | pKd [4]: < 5.00 | pKd [5]: < 5.00 | pKd [6]: 9.29

Cc1nc2c([nH]1)/C=C1\C(=O)Nc3c(Cl)cc(cc31)-c1cn(C)nc1COC[C@@H](C)N(C)C2=O [Cpd. 8, [3a(4)Z,10R]-20-chloro-6,9,10,15-tetramethyl-10,11,13,15-tetrahydro-2H-1,17-(ethanediylidene)imidazo[4,5-f]pyrazolo[4,3-m]pyrrolo[3,4-i][1,4]oxazacyclopentadecine-3,8(5H,9H)-dione]
pKd [1]: < 5.00 | pKd [3]: < 5.00 | pKd [4]: < 5.00 | pKd [5]: < 5.00 | pKd [6]: 6.77

Cc1cc2c([nH]1)/C=C1\C(=O)Nc3c(Cl)cc(cc31)-c1[nH]c(C)nc1COC[C@@H](C)N(C)C2=O [Cpd. 9, [3a(4)Z,10R]-20-chloro-6,9,10,15-tetramethyl-10,11,13,16-tetrahydro-2H-1,17-(ethanediylidene)imidazo[4,5-m]dipyrrolo[3,2-f:3′,4′-i][1,4]oxazacyclopentadecine-3,8(5H,9H)-dione]
pKd [1]: < 5.00 | pKd [2]: 6.89 | pKd [3]: < 5.00 | pKd [4]: 5.51 | pKd [5]: < 5.00 | pKd [6]: 9.00

Cc1cc2c([nH]1)/C=C1\C(=O)Nc3c(C#N)cc(cc31)-c1cn(C)nc1COC[C@@H](C)N(C)C2=O [Cpd. 10, [3a(4)Z,10R]-6,9,10,15-tetramethyl-3,8-dioxo-3,5,8,9,10,11,13,15-octahydro-2H-1,17-(ethanediylidene)pyrazolo[4,3-m]dipyrrolo[3,2-f:3′,4′-i][1,4]oxazacyclopentadecine-20-carbonitrile]
pKd [1]: < 6.00 | pKd [3]: < 6.00 | pKd [4]: < 6.00 | pKd [6]: 7.34

Cc1cc2c([nH]1)/C=C1\C(=O)Nc3c(Cl)cc(cc31)-c1cn(C)nc1COC[C@H](C)N(C)C2=O [compound 6, [3a(4)Z,10S]-20-chloro-6,9,10,15-tetramethyl-10,11,13,15-tetrahydro-2H-1,17-(ethanediylidene)pyrazolo[4,3-m]dipyrrolo[3,2-f:3′,4′-i][1,4]oxazacyclopentadecine-3,8(5H,9H)-dione]
pKd [1]: < 5.00 | pKd [2]: 6.80 | pKd [3]: < 5.00 | pKd [4]: < 5.00 | pKd [5]: < 5.00 | pKd [6]: 8.60

Cc1cc2c([nH]1)/C=C1\C(=O)Nc3c(F)cc(cc31)-c1c(nn(C)c1C)COC[C@@H](C)N(C)C2=O [compound 11, [3a(4)Z,10R]-20-fluoro-6,9,10,15,16-pentamethyl-10,11,13,15-tetrahydro-2H-1,17-ethenopyrazolo[4,3-m]dipyrrolo[3,2-f:3′,4′-i][1,4]oxazacyclopentadecine-3,8(5H,9H)-dione]
pKd [1]: < 5.00 | pKd [2]: 6.14 | pKd [3]: < 5.00 | pKd [4]: 5.28 | pKd [5]: < 5.00 | pKd [6]: 8.47

Cc1cc2c([nH]1)/C=C1\C(=O)Nc3c(Cl)cc(cc31)-c1c(nn(C)c1C)COC[C@@H](C)N(C)C2=O [compound 12, [3a(4)Z,10R]-20-chloro-6,9,10,15,16-pentamethyl-10,11,13,15-tetrahydro-2H-1,17-ethenopyrazolo[4,3-m]dipyrrolo[3,2-f:3′,4′-i][1,4]oxazacyclopentadecine-3,8(5H,9H)-dione]
pKd [1]: < 5.00 | pKd [2]: 6.92 | pKd [3]: < 5.00 | pKd [4]: < 5.00 | pKd [5]: < 5.00 | pKd [6]: 8.89

Cc1cc2c([nH]1)/C=C1\C(=O)Nc3c(F)cc(cc31)-c1cn(C)nc1COC[C@@H](C)N(C)C2=O [compound 13, [3a(4)Z,10R]-20-fluoro-6,9,10,15-tetramethyl-10,11,13,15-tetrahydro-2H-1,17-ethenopyrazolo[4,3-m]dipyrrolo[3,2-f:3′,4′-i][1,4]oxazacyclopentadecine-3,8(5H,9H)-dione]
pKd [1]: < 5.00 | pKd [2]: 6.39 | pKd [3]: < 5.00 | pKd [4]: < 5.00 | pKd [5]: < 5.00 | pKd [6]: 9.00
